Experimental data: patent EP2246037A2, “Anti-aging and whitening properties of quercetin, 18a-glycyrrhetinic acid, hederagenin and its derivatives” (Korres S.A. Natural Products, priority 2009, dated 2010)

Experiments:
HFL-1 HDFs = assay: Cell survival with or without oxidative stress; format: cell-based, human; settings: for higher survival rate as compared to control cultures: 300 µM H2O2 for 2.5 h, then additional 24 h in culture; for survival to an oxidative stress challenge: summary, versus control cells
[1] = tested on: HFL-1 human diploid fibroblasts; assay: β-galactosidase activity staining of continuously treated fibroblasts; format: cell-based
Protocol: The steps, methods and results that were obtained regarding the anti-aging properties of the examined substances are the following: • 1) Study of the lifespan of human diploid fibroblasts in vitro in the presence of the substances. • 1.1. HFL-1 human diploid fibroblasts (HDFs) were used in in vitro conditions (growth at 37°C, 5% CO2 and 95% humidity). • 1.2. The cells were maintained in Dulbecco's modified Eagle's medium (DMEM ®; Invitrogen Life Technologies Inc.) supplemented with 10% (v/v) fetal calf serum, 100 Units/ml penicillin, 100 µg/ml strepromycin, 2 mM glutamine and 1% (v/v) non-essential amino acids (complete medium). • 1.3. The cells were constantly cultured in culture medium supplemented with the substances [final concentration for quercetin (QUER), 18α-glycyrrhetinic acid (18α GA), and hederagenin (HED): 2 µg/ml and for quercetin caprylate (QU-CAP) three concentrations were applied: 0.5, 2 and 5 µg/ml]. Quercetin, 18α-glycyrrhetinic acid and hederagenin were diluted in DMSO (dimethyl sulfoxide) whereas quercetin caprylate was diluted in caprilic/capric triglycerides (CAP). Therefore, the control cultures were incubated in medium supplemented with 0.1% DMSO or 0.1% CAP. • 1.4. The cells were replenished with fresh media supplemented with the substances or the diluents every 24 h and their numbers were examined using a Coulter Z2 ® counter (Coulter Corporation) until they reached senescence (approximately after 13 weeks). The cumulative population doublings performed by each culture were calculated using the following formula: CPD=Σ[PD] where PD=LOG[Nfinal/Ninitial]/LOG[2], where N final represents the number of cells that were measured when each culture reached confluence and N initial represents the number of cells that was initially seeded. • 1.5. Photographs of the cells maintained in cell culture and treated with the various substances for the same time period were taken. • 1.6. […] More specifically, cells that were incubated with quercetin caprylate gave up to 2.8% more population doublings as compared to the population doublings performed by the relative control cultures. Cells that were incubated with the other substances gave up to 2.9% more population doublings as compared to their relative control cultures. • 1.7. […] Cells that were treated with either of the tested substances maintained the young morphology for longer as compared to the control cultures (DMSO-treated and CAP-treated). […] Briefly, 10^5 cells from each culture were seeded in 6-well plates. After 24 h cells were washed with PBS (phosphate buffered saline), fixed in 0.2% glutaraldehyde and 2% formaldehyde for 5 min, washed again with PBS, and finally stained for 24 h at 37 °C in the absence of CO2, in staining solution (150 mM NaCl, 2 mM MgCl2, 5 mM K3Fe(CN)6, 40 mM citric acid, and 12 mM sodium phosphate, pH 6.0) containing 1 mg/ml 5-bromo-4-chloro-3-indolyl-β-D-galactoside. Photographs were then taken. • 1.3. […] HFL-1 HDFs that have senesced in vitro were used (growth at 37°C, 5% CO2 and 95% humidity). More specifically, middle aged HFL-1 HDFs (cpd 59) and terminally senescent HFL-1 HDFs (cpd 65) that had senesced in the absence of any substance were used. • 3.2. The cells were seeded and maintained in complete medium (see 1.2). Culture medium supplemented with the substances [final concentration for quercetin (QUER), 18α-glycyrrhetinic acid (18α GA), and hederagenin (HED): 2 µg/ml and for quercetin caprylate (QU-CAP) three concentrations were applied: 0.5, 2 and 5 µg/ml] or the diluents (0.1% DMSO or 0.1% CAP) were added 24 h later. The cells were replenished with fresh media supplemented with the substances or the diluents every 24 h for 1 week and their numbers were then examined using a Coulter Z2 ® counter (Coulter Corporation). • 3.3. Detection of β-galactosidase activity was performed in these cells as described above and photographs of the cells following β-galactosidase activity assay were taken. • 3.4. […]

| Compound | higher survival rate as compared to control cultures (HFL-1 HDFs) | higher survival rate as compared to diluent-treated cells (HFL-1 HDFs; 24 h treatment, no oxidative stress) | survival to an oxidative stress challenge (HFL-1 HDFs) | % β-galactosidase positive cells ([1]; 2 µg/ml) | % β-galactosidase positive cells ([1]; 0,5 µg/ml) | % β-galactosidase positive cells ([1]; 5 µg/ml) |
| --- | --- | --- | --- | --- | --- | --- |
| CC1(C)[C@@H](O)CC[C@]2(C)[C@H]3C(=O)C=C4[C@H]5C[C@@](C)(C(=O)O)CC[C@]5(C)CC[C@@]4(C)[C@]3(C)CC[C@@H]12 [18α-glycyrrhetinic acid] | 2% | 3.5% | survived better | 37.7% |  |  |
| CC1(C)CC[C@]2(C(=O)O)CC[C@]3(C)C(=CC[C@@H]4[C@@]5(C)CC[C@H](O)[C@@](C)(CO)[C@@H]5CC[C@]43C)[C@@H]2C1 [Hederagenin] |  |  |  | 31.8% |  |  |
| O=c1c(O)c(-c2ccc(O)c(O)c2)oc2cc(O)cc(O)c12 [Quercetin] | ≤ 14.5% |  | survived better | 13.5% |  |  |
| quercetin caprylate | ≤ 14.5% |  | survived better | 32.3% | 36.6% | 47% |
